The values that follow come from patent US20140018750A1, “METHOD AND DEVICE OR PHARMACEUTICAL COMPOSITIONS FOR THE TRANSDERMAL DELIVERY OF MAGNESIUM DIRECTLY TO THE NEUROMUSCULAR JUNCTION FOR THE TREATMENT OF MUSCLE CRAMPING” (priority 2012, published 2014).

For assay [1], the system named is muscle cramping.
Assay [2] concerns sciatica. The conditions noted are these: Patient Michael, cream composed of aloe combined with 8% by MW of magnesium sulfate.

In the case of `O=S(=O)([O-])[O-].[Mg+2]` [magnesium sulfate], the time to relief result in assay [1] (Patient Doris, reoccurring severe muscle cramps in the right foot, liquid solution, 8% by MW of magnesium sulfate, applied to the area) is on record as “three”; in assay [2], “six”. In assay [1] (Patient Henry, severe muscle cramps in the upper right arm after exertion, liquid form of 8% by MW of magnesium sulfate applied directly), the “time until began to experience relief” value is “three”. In addition, in assay [1] (Patient Norma, severe leg cramps with restless leg syndrome, towel soaked in composition with 8% by MW of magnesium sulfate applied to affected area), the “time to relief from both symptoms” value is “four”.
